This is an account of results in PubChem BioAssay (NCI).

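Test compounds were applied to cells in 96-well plates for 48 hours at 5 doses. GI50 is the concentration that inhibits growth by half. TGI: concentration producing complete growth inhibition.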

Among the test systems are OVCAR-8 ovarian; RXF 393 renal; MDA-MB-435; HOP-62 NSCLC; SF-268 CNS; SNB-75 CNS; A549 NSCLC; HL-60(TB) leukemia; M14 melanoma; NCI-H522 lung.
Common to all, as to test: growth of human tumour cells (NCI), 48 h

`CCCCCCNCc1cc(C(C)(C)C)cc(CNCCCCCC)c1O`: the GI50 in the experiment with OVCAR-8 ovarian was 1.75 µM; with RXF 393 renal, 1.62 µM; with MDA-MB-435 it was 1.61 µM; with HOP-62 NSCLC, 1.58 µM; in the experiment with SF-268 CNS, 1.7 µM; in the experiment on SNB-75 CNS, 1.44 µM. In addition, the GI50 in the experiment on A549 NSCLC is 1.71 µM; in the experiment with HL-60(TB) leukemia, 1.68 µM; with M14 melanoma, 1.75 µM; in the experiment with NCI-H522 lung, 1.65 µM. Besides, the TGI worked out at 3.37 µM in the experiment with OVCAR-8 ovarian; 2.99 µM with RXF 393 renal; 2.98 µM in the experiment on MDA-MB-435; 2.93 µM in the experiment on HOP-62 NSCLC; 3.32 µM in the experiment on SF-268 CNS; 2.92 µM in the experiment on SNB-75 CNS. Further, the TGI was determined as 3.08 µM in the experiment on A549 NSCLC, 3.33 µM in the experiment on HL-60(TB) leukemia, 3.18 µM with M14 melanoma and 3.13 µM in the experiment with NCI-H522 lung.

For the compound `COC(=O)c1cc(OC)c(OC)c(OC)c1-c1cc2c(cc1C=O)OCO2`, the TGI with OVCAR-8 ovarian, with RXF 393 renal, in the experiment with MDA-MB-435, in the experiment with HOP-62 NSCLC, in the experiment with SF-268 CNS and with SNB-75 CNS was greater than 10 µM throughout. Moreover, the TGI in the experiment with A549 NSCLC, in the experiment with HL-60(TB) leukemia, in the experiment on M14 melanoma and with NCI-H522 lung was greater than 10 µM in each case.

Regarding `Cc1cc(Cl)ccc1C(=O)c1ccc2ccccc2c1C(=O)O`, the TGI in the experiment with OVCAR-8 ovarian, in the experiment with RXF 393 renal, in the experiment on MDA-MB-435, in the experiment with SF-268 CNS, with SNB-75 CNS and with A549 NSCLC was greater than 100 µM in each case. Further, the TGI in the experiment on HL-60(TB) leukemia, in the experiment on M14 melanoma and in the experiment with NCI-H522 lung was greater than 100 µM throughout.

With `Cc1[nH]c2cc(F)ccc2c1-c1nc2c3cccnc3c3ncccc3c2[nH]1`, the GI50 in the experiment with OVCAR-8 ovarian was 0.216 µM; in the experiment on RXF 393 renal it was 0.19 µM; with MDA-MB-435, 0.342 µM; in the experiment on HOP-62 NSCLC, 0.27 µM; in the experiment with SF-268 CNS it was 0.21 µM; in the experiment on SNB-75 CNS it was 0.473 µM. For the same compound, the GI50 in the experiment on A549 NSCLC was 0.381 µM; with HL-60(TB) leukemia it was 0.205 µM; with M14 melanoma it was 0.187 µM; with NCI-H522 lung, 0.391 µM. The TGI amounted to 1.22 µM in the experiment on OVCAR-8 ovarian; 0.785 µM in the experiment with RXF 393 renal; 1.48 µM with MDA-MB-435; 1.27 µM with HOP-62 NSCLC; 2.2 µM in the experiment with SF-268 CNS; 1.84 µM with SNB-75 CNS. Besides, the TGI in the experiment on A549 NSCLC is 2.35 µM; in the experiment on HL-60(TB) leukemia, 0.564 µM; in the experiment on M14 melanoma, 0.667 µM; in the experiment on NCI-H522 lung, 1.46 µM.

Consider `CN(C)c1cccc(F)c1C(=O)NC(=O)Nc1ccc(Cl)cc1`, for which the TGI in the experiment with OVCAR-8 ovarian was greater than 86.4 µM; with RXF 393 renal, 69.6 µM; with MDA-MB-435, 3.44 µM; in the experiment with HOP-62 NSCLC, greater than 100 µM; in the experiment with SF-268 CNS it was greater than 100 µM; in the experiment with SNB-75 CNS, 9.12 µM. The TGI in the experiment on A549 NSCLC was greater than 100 µM; with HL-60(TB) leukemia it was 18.1 µM; in the experiment with M14 melanoma it was greater than 100 µM; with NCI-H522 lung, 5.77 µM.

Regarding `COc1c(N2CCN(CN3C(=O)C(=O)c4cc(Cl)ccc43)C(C)C2)c(F)cc2c(=O)c(C(=O)O)cn(C3CC3)c12` (stereo unspecified), the GI50 in the experiment with OVCAR-8 ovarian is 51.9 µM; in the experiment with RXF 393 renal it was 34.4 µM; with MDA-MB-435 it was 17.2 µM; in the experiment on SF-268 CNS it was 26.8 µM; in the experiment with SNB-75 CNS, greater than 100 µM; in the experiment with A549 NSCLC, 49.4 µM. Moreover, the GI50 was 7.29 µM with HL-60(TB) leukemia, 69.6 µM in the experiment with M14 melanoma and greater than 100 µM in the experiment on NCI-H522 lung. Moreover, the TGI in the experiment with OVCAR-8 ovarian is greater than 100 µM; in the experiment with RXF 393 renal, greater than 100 µM; in the experiment with MDA-MB-435 it was 36.3 µM; with SF-268 CNS it was greater than 100 µM; with SNB-75 CNS, greater than 100 µM; in the experiment with A549 NSCLC, greater than 100 µM. In addition, the TGI with HL-60(TB) leukemia, with M14 melanoma and in the experiment with NCI-H522 lung was greater than 100 µM throughout.

With `COC1CC(N)C(O)C(C)O1` (stereo unspecified), the TGI with OVCAR-8 ovarian, with RXF 393 renal, with MDA-MB-435, with HOP-62 NSCLC, with SF-268 CNS and in the experiment on SNB-75 CNS was greater than 100 µM in each case. Also, the TGI with HL-60(TB) leukemia, in the experiment with M14 melanoma and in the experiment with NCI-H522 lung was greater than 100 µM each time.

Take `COc1cc2c(c(OC)c1OC)-c1ccc(N=NC(N)=S)c(=O)cc1[C@@H](NC(C)=O)CC2`: the GI50 in the experiment on OVCAR-8 ovarian is 2.19 µM; in the experiment with RXF 393 renal it was 0.937 µM; in the experiment with MDA-MB-435 it was 0.216 µM; in the experiment on HOP-62 NSCLC, 1.8 µM; with SF-268 CNS, 0.716 µM; in the experiment with SNB-75 CNS it was 0.256 µM. Also, the GI50 was 3.63 µM in the experiment with A549 NSCLC, 0.378 µM in the experiment with HL-60(TB) leukemia and 0.354 µM in the experiment with NCI-H522 lung. Further, the TGI in the experiment on OVCAR-8 ovarian was greater than 100 µM; in the experiment on RXF 393 renal, greater than 100 µM; in the experiment on MDA-MB-435 it was 0.577 µM; in the experiment with HOP-62 NSCLC it was greater than 100 µM; with SF-268 CNS, greater than 100 µM; with A549 NSCLC, greater than 100 µM.
